The values below come from patent US10030004B2, “Compounds and methods of use” (Medivation Technologies LLC, priority 2014, dated 2018).

Read-outs that look alike come from different tables or passages of the source.

One data set concerns the target ALK1 (ACVRL1) (Homo sapiens (Human), UniProt P37023). In words: In vitro kinase assay, ALK1. The format is biochemical. As to conditions: 10 μM ATP; read-out: Inhibition of ALK1 IC50.
A further data set has as its target ALK3 (BMPR1A) (Homo sapiens (Human), UniProt P36894). In words: In vitro kinase assay, ALK3. Format: biochemical. The conditions noted are these: 10 μM ATP; read-out: Inhibition of ALK3 IC50.
A further data set concerns the target ALK2 (ACVR1) (Homo sapiens (Human), UniProt Q04771). Description: In vitro kinase assay, ALK2. The format is biochemical. The conditions noted are these: read-out: Inhibition of ALK2 IC50.
Data set [1] in a line: Pharmacokinetics and bioavailability in male mice after a single dose. The format is in vivo. The conditions noted are these: for AUC(0-t) / Cmax / clearance / half-life / Tmax / bioavailability: mouse, plasma; for half-life: read-out: Terminal t1/2 (converted).
A further data set addresses ALK4 (ACVR1B) (Homo sapiens (Human), UniProt P36896). In words: In vitro kinase assay, ALK4. The format is biochemical. As to conditions: 10 μM ATP; read-out: Inhibition of ALK4 IC50.
For the next data set, the target named is ALK5 (TGFBR1) (Homo sapiens (Human), UniProt P36897). Description: In vitro kinase assay, ALK5. The format is biochemical. As to conditions: 10 μM ATP; read-out: Inhibition of ALK5 IC50.
A further data set concerns the target ALK6 (BMPR1B) (Homo sapiens (Human), UniProt O00238). In words: In vitro kinase assay, ALK6. Format: biochemical.
The next data set deals with p-SMAD2. Description: p-SMAD2 inhibition, Western Blot Analysis in TGFβ-stimulated MDA-MB-231 cells. As to conditions: Homo sapiens, TGFβ 2 ng/mL, triplicate; for inhibition at 0.1 µM: 0.1 μM compound, read-out: Average p-SMAD2 inhibition @ 0.1 μM (% Inh). Format: cell-based. On the technique in general: A western blot detects proteins with antibodies after separation by electrophoresis.

The mark [2] stands for this setting: 10 μM ATP, read-out: Inhibition of ALK6 IC50.

ALK2 (ACVR1), sequence (Q04771 21-509): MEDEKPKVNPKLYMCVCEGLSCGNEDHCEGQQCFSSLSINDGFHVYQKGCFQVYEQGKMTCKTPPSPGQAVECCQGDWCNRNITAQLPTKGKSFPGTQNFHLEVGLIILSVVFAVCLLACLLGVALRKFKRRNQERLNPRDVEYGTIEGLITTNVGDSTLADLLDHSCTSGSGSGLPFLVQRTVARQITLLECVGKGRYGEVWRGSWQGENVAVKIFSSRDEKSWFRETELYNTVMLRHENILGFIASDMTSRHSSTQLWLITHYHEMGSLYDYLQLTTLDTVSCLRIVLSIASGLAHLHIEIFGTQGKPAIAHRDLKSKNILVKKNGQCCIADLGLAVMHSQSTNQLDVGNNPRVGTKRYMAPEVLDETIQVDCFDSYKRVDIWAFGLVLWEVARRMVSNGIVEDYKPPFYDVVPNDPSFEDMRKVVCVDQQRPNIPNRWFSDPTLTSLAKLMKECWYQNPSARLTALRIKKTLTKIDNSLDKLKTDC
ALK3 (BMPR1A), sequence (P36894 24-532): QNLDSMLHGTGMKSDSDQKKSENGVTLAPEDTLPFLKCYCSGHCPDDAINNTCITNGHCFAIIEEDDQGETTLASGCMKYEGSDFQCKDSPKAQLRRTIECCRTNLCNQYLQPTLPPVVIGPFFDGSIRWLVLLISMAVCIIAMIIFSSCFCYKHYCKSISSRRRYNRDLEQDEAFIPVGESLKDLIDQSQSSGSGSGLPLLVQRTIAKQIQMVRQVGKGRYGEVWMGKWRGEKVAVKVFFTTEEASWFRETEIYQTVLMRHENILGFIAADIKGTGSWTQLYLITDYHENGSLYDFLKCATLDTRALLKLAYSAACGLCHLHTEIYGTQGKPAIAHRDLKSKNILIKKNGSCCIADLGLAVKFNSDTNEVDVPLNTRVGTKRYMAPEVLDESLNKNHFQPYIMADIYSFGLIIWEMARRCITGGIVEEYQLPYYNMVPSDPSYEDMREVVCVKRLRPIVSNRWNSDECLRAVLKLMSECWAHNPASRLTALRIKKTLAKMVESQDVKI
ALK1 (ACVRL1), sequence (P37023 22-503): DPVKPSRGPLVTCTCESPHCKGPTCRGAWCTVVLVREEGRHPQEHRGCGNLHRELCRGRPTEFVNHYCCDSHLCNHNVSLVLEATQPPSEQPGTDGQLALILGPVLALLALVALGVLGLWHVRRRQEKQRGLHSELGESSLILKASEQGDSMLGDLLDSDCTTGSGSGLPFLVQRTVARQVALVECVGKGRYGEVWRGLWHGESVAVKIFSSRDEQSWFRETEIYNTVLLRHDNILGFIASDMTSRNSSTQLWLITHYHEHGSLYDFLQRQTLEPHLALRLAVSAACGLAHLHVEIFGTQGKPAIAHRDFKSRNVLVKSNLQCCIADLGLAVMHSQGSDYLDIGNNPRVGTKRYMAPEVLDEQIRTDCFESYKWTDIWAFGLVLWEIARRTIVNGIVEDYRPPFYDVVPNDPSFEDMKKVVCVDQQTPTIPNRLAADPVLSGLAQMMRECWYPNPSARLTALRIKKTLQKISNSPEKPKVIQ
ALK6 (BMPR1B), sequence (O00238 14-502): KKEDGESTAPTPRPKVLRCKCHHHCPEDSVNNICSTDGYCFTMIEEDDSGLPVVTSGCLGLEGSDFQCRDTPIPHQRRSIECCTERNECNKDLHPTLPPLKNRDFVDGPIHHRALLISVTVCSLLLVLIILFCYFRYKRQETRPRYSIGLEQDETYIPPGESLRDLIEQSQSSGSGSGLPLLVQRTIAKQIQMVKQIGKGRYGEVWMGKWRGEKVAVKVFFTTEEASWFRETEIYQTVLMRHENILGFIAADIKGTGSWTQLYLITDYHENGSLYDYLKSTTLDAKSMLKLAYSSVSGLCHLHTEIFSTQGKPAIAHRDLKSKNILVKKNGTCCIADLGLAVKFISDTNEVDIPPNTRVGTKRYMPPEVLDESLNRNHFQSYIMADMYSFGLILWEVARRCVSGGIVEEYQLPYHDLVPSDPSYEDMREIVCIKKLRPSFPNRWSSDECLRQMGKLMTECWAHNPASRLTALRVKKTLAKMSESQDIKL
ALK5 (TGFBR1), sequence (P36897 34-503): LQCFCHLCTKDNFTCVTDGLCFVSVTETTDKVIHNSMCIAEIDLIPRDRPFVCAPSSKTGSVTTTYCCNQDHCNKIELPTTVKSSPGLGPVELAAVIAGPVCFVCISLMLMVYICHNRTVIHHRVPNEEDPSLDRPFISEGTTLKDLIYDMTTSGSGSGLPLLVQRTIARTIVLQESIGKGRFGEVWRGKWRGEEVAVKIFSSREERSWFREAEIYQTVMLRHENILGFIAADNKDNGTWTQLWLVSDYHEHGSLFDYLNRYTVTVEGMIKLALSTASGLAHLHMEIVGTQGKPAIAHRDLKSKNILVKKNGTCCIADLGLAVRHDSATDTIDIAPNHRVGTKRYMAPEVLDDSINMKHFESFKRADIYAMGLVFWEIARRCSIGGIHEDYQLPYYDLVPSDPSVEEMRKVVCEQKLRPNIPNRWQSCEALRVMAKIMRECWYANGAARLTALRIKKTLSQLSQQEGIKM
ALK4 (ACVR1B), sequence (P36896 24-505): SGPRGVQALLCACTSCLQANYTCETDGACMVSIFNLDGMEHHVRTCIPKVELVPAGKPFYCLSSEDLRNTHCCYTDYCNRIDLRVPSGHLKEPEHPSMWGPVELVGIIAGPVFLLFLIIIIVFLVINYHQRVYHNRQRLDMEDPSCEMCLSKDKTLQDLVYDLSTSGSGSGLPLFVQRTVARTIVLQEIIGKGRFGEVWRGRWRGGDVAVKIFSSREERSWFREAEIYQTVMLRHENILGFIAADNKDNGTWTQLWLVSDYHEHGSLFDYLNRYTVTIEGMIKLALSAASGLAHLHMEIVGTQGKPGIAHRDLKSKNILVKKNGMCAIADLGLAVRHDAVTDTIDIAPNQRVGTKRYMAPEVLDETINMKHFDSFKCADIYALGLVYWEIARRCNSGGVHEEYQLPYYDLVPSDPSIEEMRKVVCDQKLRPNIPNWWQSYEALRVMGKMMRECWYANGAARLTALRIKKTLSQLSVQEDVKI

Take `C=C(C)c1cnc(-c2cc(Cl)ccc2F)cc1Nc1ccncc1C(=O)NC(C)(C)CO` [compound 8, 4-[[2-(5-chloro-2-fluoro-phenyl)-5-isopropenyl-4-pyridyl]amino]-N-(2-hydroxy-1,1-dimethyl-ethyl)pyridine-3-carboxamide]: the IC50 (usually the point on the concentration scale where inhibition reaches its midpoint) at ALK1 (ACVRL1) is over 100 µM. For the same compound, the concentration for half-maximal inhibition (IC50) at ALK3 (BMPR1A) was over 100 µM. Besides, the half-inhibitory concentration (IC50) on ALK2 (ACVR1) is over 100 µM. Besides, in data set [1] (intravenous, 2 mg/kg), the V turned out to be 14.9 L/kg; the AUC(0-t) (usually exposure summed from dosing to a finite time, without extrapolation to infinity) is 0.709 µM·h; the highest level (Cmax) was 1240 nM; the clearance (usually the rate of elimination divided by the concentration) is 103 mL/min/kg. For the same compound, the half-life in data set [1] (intravenous, 2 mg/kg) is 1.68 h. Further, in data set [1] (oral, 10 mg/kg), the AUC(0-t) stood at 1.31 µM·h; the peak concentration (Cmax) – broadly, the highest concentration seen after dosing – came out at 1060 nM; the Tmax (commonly the time from dosing to the highest level) came out at 0.25 h; the bioavailability (as a rule, the share of a dose that reaches the circulation, judged against a reference dose that is usually intravenous) stood at 36.9%. The half-life in data set [1] (oral, 10 mg/kg) was 1.26 h.
For the compound `CC(O)CNC(=O)c1c[nH]nc1Nc1cc(-c2cc(Cl)ccc2F)ncc1C(C)C` (single isomer, unassigned) [21a, 3-[[2-(5-chloro-2-fluoro-phenyl)-5-isopropyl-4-pyridyl]amino]-N-(2-hydroxypropyl)-1H-pyrazole-4-carboxamide], the concentration for half-maximal inhibition (IC50) at ALK4 (ACVR1B) is over 1000 µM; at ALK5 (TGFBR1) it was over 100 µM; on ALK1 (ACVRL1) it was over 100 µM; on ALK3 (BMPR1A) it was over 1000 µM; against ALK6 (BMPR1B) it was over 1000 µM; at ALK2 (ACVR1) (10 μM ATP), over 1000 µM.
Take `C=C(C)c1cnc(-c2cc(Cl)ccc2F)cc1Nc1ccncc1C(=O)N[C@@H](CC)CO` (single isomer, unassigned) [24a]: the IC50 on ALK1 (ACVRL1), at ALK3 (BMPR1A), at ALK6 (BMPR1B) (setting [2]) and at ALK2 (ACVR1) (10 μM ATP) was over 100 µM in each case.
`C=C(C)c1cnc(-c2cc(Cl)ccc2F)cc1Nc1ccncc1C(=O)NCCO` [compound 26, 4-[[2-(5-chloro-2-fluoro-phenyl)-5-isopropenyl-4-pyridyl]amino]-N-(2-hydroxyethyl)pyridine-3-carboxamide]: on ALK3 (BMPR1A), the concentration for half-maximal inhibition (IC50) was over 100 µM. Moreover, the IC50 at ALK6 (BMPR1B) (setting [2]) was over 100 µM. The IC50 at ALK2 (ACVR1) (10 μM ATP) was over 100 µM. In data set [1] (intravenous, 2 mg/kg), this compound gave a V of 6.21 L/kg, an AUC(0-t) of 1.76 µM·h, a Cmax of 3000 nM and a clearance of 44.3 mL/min/kg. Besides, the half-life in data set [1] (intravenous, 2 mg/kg) was 1.62 h. For the same compound, in data set [1] (oral, 10 mg/kg), the exposure AUC(0-t) was 2.36 µM·h, the peak level (Cmax) was 1290 nM, the time to peak (Tmax) was determined as 0.5 h and the bioavailability was 26.9%. Further, the half-life in data set [1] (oral, 10 mg/kg) was 1.66 h.
`C=C(C)c1cnc(-c2cc(Cl)ccc2F)cc1Nc1ccncc1C(=O)N1CCCC1` [compound 34, 2-(5-chloro-2-fluorophenyl)-5-(prop-1-en-2-yl)-N-[3-(pyrrolidine-1-carbonyl)pyridin-4-yl]pyridin-4-amine]: the IC50 on ALK1 (ACVRL1), on ALK3 (BMPR1A) and at ALK2 (ACVR1) (10 μM ATP) was over 10 µM each time.
In the case of `CC(C)c1cnc(-c2cc(Cl)ccc2F)cc1Nc1ccncc1C(=O)N1CCC(O)CC1` [compound 9, [4-[[2-(5-chloro-2-fluoro-phenyl)-5-isopropyl-4-pyridyl]amino]-3-pyridyl]-(4-hydroxy-1-piperidyl)methanone], the inhibition – broadly, how much of the control response was suppressed – at 0.1 µM in the data set with p-SMAD2 is 6%. For the same compound, the inhibition at 0.5 µM with p-SMAD2 (0.5 μM compound, read-out: Average p-SMAD2 inhibition @ 0.5 μM (% Inh)) was 12.7%.
For the compound `CC(C)c1cnc(-c2ncccc2F)cc1Nc1ncnc2[nH]ccc12` [compound 30, 2-(3-fluoropyridin-2-yl)-5-(propan-2-yl)-N-{7H-pyrrolo[2,3-d]pyrimidin-4-yl}pyridin-4-amine], the IC50 on ALK3 (BMPR1A) is over 10 µM; on ALK6 (BMPR1B) (setting [2]) it was 13.5 µM; on ALK2 (ACVR1) (10 μM ATP), 73 µM.
On to `C[C@H](O)CNC(=O)c1cnccc1Nc1cc(-c2cc(Cl)ccc2F)ncc1C1CC1` [compound 31, 4-{[2-(5-chloro-2-fluorophenyl)-5-cyclopropylpyridin-4-yl]amino}-N-[(2S)-2-hydroxypropyl]pyridine-3-carboxamide], for which the 50% inhibitory concentration (IC50) on ALK1 (ACVRL1), at ALK3 (BMPR1A), on ALK6 (BMPR1B) (setting [2]) and on ALK2 (ACVR1) (10 μM ATP) was over 10 µM throughout.
Turning to `CC(C)c1cnc(-c2ccccc2)cc1Nc1ccncc1C(=O)NC[C@H](C)O` [compound 28, N-(2-hydroxypropyl)-4-[(5-isopropyl-2-phenyl-4-pyridyl)amino]pyridine-3-carboxamide], the IC50 was over 100 µM at ALK1 (ACVRL1), over 1000 µM on ALK3 (BMPR1A), over 1000 µM on ALK6 (BMPR1B) (setting [2]) and over 1000 µM at ALK2 (ACVR1) (10 μM ATP).
`C=C(C)c1c(Nc2ccncc2C(=O)NC[C@H](C)O)cc(-c2cc(Cl)ccc2F)nc1N` (single isomer, unassigned) [23a]: the 50% inhibitory concentration (IC50) at ALK3 (BMPR1A) was over 100 µM. For the same compound, the half-maximal inhibitory concentration (IC50) on ALK6 (BMPR1B) (setting [2]) is over 100 µM. The IC50 at ALK2 (ACVR1) (10 μM ATP) was over 100 µM. In data set [1] (intravenous, 2 mg/kg), the area under the curve AUC(0-t) amounted to 1.11 µM·h, the highest level (Cmax) was 2560 nM and the clearance is 66 mL/min/kg. Moreover, in data set [1] (oral, 10 mg/kg), the AUC(0-t) was 0.907 µM·h, the Cmax was 612 nM, the time of peak concentration (Tmax) was found to be 0.25 h and the bioavailability was 16.4%.
On to `C=Cc1cnc(-c2cc(Cl)ccc2F)cc1Nc1ccncc1C(=O)NC[C@H](C)O` [10a, (S)-4-(2-(5-chloro-2-fluorophenyl)-5-vinylpyridin-4-ylamino)-N-(2-hydroxypropyl)nicotinamide], for which, in the data set on p-SMAD2, the inhibition at 0.1 µM was 0%.
